# Measured values taken from US20170190705A1, “Compositions and Methods for Inhibiting BMP” (THE BRIGHAM AND WOMAN'S HOSPITAL, INC., priority 2014, published 2017).
# What was measured:
# Type in all cases: biochemical
# PKA = PKA (Homo sapiens, UniProt P17612); assay: Kinome profiling PKA; conditions: read-out: Inhibitory activity PKA; for inhibition at 0.1 µM: 100 nM
# Experimental: (§1) . The kinome-wide selectivity was determined following the methods previously reported by Mohedas et al., ACS Chem Biol 2013, 8, 1291-1302 and Sanvitale et al., PLoS One 2013, 8, e62721.
# PI3-K-δ = PI3-K-δ (Homo sapiens, UniProt O00329); assay: Kinome profiling PI3-K-δ; conditions: read-out: Inhibitory activity PI3-K-δ; for inhibition at 0.1 µM: 100 nM
# Sequence of PI3-K-δ (O00329 whole entry): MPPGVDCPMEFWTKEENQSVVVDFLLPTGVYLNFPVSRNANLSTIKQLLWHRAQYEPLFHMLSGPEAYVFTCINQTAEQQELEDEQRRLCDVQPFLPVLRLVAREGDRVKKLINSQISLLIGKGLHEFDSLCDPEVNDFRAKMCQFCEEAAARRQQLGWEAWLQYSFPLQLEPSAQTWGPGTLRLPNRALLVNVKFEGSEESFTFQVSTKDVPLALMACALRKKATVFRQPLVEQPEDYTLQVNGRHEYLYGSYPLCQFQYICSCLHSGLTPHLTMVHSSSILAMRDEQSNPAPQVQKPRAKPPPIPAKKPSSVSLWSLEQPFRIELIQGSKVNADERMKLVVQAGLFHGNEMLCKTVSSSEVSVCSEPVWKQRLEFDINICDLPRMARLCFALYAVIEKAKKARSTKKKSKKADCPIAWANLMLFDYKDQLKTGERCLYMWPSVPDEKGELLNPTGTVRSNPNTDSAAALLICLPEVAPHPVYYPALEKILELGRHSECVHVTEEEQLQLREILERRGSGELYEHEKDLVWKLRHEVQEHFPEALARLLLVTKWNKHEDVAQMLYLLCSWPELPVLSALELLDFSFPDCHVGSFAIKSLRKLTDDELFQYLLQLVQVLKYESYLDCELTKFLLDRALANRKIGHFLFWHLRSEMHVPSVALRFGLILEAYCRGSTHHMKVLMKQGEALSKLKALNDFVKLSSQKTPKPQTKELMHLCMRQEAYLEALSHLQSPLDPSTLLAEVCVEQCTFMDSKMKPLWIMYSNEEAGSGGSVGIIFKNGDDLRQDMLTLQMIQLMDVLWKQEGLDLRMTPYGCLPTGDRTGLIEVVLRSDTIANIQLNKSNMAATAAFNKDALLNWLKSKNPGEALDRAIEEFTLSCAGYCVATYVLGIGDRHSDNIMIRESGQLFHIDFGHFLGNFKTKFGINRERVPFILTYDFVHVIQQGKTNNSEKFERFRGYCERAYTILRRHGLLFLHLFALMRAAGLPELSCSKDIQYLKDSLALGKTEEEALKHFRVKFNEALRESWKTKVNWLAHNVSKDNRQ
# Sequence of PI3-K-δ (P27986 whole entry partner): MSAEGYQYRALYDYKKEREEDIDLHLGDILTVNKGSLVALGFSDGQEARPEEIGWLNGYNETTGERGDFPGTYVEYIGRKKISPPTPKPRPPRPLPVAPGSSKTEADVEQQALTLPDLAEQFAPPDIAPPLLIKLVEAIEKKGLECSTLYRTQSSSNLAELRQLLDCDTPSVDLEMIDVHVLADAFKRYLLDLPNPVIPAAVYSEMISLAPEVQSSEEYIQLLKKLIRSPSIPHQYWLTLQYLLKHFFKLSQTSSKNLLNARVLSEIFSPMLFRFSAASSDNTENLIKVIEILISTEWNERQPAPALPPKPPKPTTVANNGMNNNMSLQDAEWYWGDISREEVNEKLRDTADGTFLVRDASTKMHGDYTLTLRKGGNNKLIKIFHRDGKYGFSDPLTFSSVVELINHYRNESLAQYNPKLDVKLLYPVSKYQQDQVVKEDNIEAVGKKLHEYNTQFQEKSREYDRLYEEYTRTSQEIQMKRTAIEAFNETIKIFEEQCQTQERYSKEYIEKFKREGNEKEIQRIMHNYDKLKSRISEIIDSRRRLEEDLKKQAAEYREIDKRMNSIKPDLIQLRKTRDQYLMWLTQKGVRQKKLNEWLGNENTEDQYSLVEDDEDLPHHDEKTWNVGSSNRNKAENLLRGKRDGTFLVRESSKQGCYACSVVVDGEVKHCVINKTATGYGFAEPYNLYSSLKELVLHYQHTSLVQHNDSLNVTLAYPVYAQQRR
# Experimental: as §1
# GRK7 = target: T1, GRK7 (Homo sapiens, UniProt Q8WTQ7); assay: Kinome profiling GRK7; conditions: read-out: Inhibitory activity GRK7; for inhibition at 0.1 µM: 100 nM
# T1 sequence (Q8WTQ7 1-553): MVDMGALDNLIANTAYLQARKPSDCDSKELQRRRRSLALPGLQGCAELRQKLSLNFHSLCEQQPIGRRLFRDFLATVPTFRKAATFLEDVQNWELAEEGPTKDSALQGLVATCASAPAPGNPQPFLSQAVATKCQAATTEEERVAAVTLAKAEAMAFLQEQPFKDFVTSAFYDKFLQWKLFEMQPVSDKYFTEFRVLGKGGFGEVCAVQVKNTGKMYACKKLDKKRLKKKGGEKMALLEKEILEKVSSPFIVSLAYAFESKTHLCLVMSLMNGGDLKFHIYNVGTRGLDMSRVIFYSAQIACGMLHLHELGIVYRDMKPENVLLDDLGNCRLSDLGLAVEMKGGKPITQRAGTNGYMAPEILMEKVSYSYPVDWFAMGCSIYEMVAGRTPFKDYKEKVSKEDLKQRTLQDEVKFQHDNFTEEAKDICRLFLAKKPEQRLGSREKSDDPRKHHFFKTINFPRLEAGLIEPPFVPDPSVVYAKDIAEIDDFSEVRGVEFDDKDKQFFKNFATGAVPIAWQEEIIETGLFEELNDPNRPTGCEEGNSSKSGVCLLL
# Experimental: as §1
# P38γ = target: T2, P38γ (Homo sapiens, UniProt P53778); assay: Kinome profiling P38γ; conditions: read-out: Inhibitory activity P38γ; for inhibition at 0.1 µM: 100 nM
# T2 sequence (P53778 1-367): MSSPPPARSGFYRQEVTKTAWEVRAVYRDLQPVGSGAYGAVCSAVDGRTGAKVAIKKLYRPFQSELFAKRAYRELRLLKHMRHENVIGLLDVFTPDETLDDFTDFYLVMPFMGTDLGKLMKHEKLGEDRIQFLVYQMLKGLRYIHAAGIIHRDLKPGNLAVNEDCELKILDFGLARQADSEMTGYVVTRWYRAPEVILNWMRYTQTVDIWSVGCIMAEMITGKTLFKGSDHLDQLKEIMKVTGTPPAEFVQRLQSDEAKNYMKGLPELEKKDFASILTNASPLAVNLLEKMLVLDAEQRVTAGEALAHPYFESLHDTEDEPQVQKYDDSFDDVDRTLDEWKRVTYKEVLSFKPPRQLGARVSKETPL
# Experimental: as §1
# LTK = LTK (Homo sapiens, UniProt P29376); assay: Kinome profiling LTK; conditions: read-out: Inhibitory activity LTK; for inhibition at 0.1 µM: 100 nM
# Sequence of LTK (P29376 17-864): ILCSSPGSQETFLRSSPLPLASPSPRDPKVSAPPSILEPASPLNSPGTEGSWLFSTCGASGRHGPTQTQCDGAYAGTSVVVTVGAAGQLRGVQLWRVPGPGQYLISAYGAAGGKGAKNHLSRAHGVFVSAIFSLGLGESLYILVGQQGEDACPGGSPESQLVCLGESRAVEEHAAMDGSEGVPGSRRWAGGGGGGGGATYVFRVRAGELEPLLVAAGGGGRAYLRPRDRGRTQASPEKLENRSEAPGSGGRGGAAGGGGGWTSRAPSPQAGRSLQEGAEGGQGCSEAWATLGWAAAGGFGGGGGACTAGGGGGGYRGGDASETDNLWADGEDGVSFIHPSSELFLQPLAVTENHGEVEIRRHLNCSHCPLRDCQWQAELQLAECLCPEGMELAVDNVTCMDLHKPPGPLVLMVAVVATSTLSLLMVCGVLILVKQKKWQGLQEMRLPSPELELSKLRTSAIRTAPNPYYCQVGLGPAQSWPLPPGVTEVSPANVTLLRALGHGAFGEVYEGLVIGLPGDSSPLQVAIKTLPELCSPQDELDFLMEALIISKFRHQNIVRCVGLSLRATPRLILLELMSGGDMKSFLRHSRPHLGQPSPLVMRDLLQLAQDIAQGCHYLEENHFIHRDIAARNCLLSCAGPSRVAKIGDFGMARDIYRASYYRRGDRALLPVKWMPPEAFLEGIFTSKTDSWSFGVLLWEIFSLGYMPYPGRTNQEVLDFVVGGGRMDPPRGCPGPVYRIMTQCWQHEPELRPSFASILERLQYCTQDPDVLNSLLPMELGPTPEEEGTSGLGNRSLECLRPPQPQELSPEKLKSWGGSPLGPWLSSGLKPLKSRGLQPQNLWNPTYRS
# Experimental: as §1
# AURORA-C = target: T3, AURORA-C (Homo sapiens, UniProt Q9UQB9); assay: Kinome profiling AURORA-C; conditions: read-out: Inhibitory activity AURORA-C; for inhibition at 0.1 µM: 100 nM
# T3 sequence (Q9UQB9 1-309): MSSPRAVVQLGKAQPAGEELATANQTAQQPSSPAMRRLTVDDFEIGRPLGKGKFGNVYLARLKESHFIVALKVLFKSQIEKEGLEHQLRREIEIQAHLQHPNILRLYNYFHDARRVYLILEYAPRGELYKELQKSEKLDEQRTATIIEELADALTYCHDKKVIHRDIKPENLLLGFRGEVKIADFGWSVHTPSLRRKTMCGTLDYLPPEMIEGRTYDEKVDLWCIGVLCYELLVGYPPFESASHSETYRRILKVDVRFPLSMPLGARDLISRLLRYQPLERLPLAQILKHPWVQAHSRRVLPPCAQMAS
# Experimental: as §1
# CHEK2 = CHEK2 (Homo sapiens, UniProt O96017); assay: Kinome profiling CHEK2; conditions: read-out: Inhibitory activity CHEK2; for inhibition at 0.1 µM: 100 nM
# Sequence of CHEK2 (O96017 whole entry): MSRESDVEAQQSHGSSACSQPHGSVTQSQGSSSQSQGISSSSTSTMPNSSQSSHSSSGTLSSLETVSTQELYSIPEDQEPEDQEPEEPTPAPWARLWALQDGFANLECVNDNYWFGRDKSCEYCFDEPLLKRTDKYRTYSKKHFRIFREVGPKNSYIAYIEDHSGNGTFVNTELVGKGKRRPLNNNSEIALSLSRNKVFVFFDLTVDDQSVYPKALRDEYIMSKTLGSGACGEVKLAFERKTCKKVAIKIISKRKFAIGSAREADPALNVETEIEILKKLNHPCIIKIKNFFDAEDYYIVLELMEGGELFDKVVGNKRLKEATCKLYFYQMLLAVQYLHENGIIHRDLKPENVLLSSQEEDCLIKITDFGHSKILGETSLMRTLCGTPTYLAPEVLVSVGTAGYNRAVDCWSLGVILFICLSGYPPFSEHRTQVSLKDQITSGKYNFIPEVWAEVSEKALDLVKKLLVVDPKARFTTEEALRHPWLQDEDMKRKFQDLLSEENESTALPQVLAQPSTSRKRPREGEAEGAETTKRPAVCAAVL
# Experimental: as §1
# DCAMKL2 = target: T4, DCAMKL2 (Homo sapiens, UniProt Q8N568); assay: Kinome profiling DCAMKL2; conditions: read-out: Inhibitory activity DCAMKL2; for inhibition at 0.1 µM: 100 nM
# T4 sequence (Q8N568 1-766): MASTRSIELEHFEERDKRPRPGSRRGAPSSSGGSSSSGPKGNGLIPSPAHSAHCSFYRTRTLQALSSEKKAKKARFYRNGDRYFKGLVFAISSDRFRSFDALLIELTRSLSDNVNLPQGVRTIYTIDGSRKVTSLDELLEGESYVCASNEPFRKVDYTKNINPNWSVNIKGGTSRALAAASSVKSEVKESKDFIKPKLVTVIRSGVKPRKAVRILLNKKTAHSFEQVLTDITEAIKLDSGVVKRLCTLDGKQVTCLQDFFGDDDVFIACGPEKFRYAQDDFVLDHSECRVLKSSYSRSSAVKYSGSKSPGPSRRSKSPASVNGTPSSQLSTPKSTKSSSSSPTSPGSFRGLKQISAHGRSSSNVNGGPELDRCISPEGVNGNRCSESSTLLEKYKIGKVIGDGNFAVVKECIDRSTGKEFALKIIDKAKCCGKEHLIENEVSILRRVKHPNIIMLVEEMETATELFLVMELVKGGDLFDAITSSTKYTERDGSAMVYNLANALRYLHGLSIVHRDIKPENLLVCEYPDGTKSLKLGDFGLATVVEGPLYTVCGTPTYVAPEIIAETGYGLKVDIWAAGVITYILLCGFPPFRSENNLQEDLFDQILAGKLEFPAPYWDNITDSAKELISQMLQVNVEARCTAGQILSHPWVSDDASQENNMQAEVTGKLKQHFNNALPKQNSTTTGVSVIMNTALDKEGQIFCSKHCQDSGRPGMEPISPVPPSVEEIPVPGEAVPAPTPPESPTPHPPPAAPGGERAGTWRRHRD
# Experimental: as §1
# MAPK1 = MAPK1 (Homo sapiens, UniProt P28482); assay: Kinome profiling MAPK1; conditions: read-out: Inhibitory activity MAPK1; for inhibition at 0.1 µM: 100 nM
# Sequence of MAPK1 (P28482 whole entry): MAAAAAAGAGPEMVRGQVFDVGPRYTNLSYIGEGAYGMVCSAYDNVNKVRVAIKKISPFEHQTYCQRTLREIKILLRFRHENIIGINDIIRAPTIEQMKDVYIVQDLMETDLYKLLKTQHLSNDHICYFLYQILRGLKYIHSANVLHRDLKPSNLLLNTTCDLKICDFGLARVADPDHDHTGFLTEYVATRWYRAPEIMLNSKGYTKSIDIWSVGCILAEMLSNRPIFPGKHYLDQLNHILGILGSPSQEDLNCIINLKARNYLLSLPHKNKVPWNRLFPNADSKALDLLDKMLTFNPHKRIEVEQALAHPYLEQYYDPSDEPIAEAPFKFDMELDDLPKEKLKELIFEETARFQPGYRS
# Experimental: as §1
# MEK1 = MEK1 (Homo sapiens, UniProt Q02750); assay: Kinome profiling MEK1; conditions: read-out: Inhibitory activity MEK1; for inhibition at 0.1 µM: 100 nM
# Sequence of MEK1 (Q02750 whole entry): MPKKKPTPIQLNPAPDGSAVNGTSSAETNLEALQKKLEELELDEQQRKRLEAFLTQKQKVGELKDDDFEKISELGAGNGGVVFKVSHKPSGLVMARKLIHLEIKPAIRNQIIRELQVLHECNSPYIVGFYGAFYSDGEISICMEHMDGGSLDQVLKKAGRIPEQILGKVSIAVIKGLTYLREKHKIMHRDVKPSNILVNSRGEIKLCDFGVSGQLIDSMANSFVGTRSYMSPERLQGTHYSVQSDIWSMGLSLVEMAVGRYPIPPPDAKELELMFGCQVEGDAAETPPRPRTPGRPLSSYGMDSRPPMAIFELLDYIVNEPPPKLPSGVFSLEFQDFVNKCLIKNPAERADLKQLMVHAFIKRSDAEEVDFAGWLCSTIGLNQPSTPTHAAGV
# Experimental: as §1
SMILES,inhibition at 0.1 µM (PKA) [%],inhibition at 1 µM (PKA) [%],inhibition at 0.1 µM (PI3-K-δ) [%],inhibition at 1 µM (PI3-K-δ) [%],inhibition at 0.1 µM (GRK7) [%],inhibition at 1 µM (GRK7) [%],inhibition at 0.1 µM (P38γ) [%],inhibition at 1 µM (P38γ) [%],inhibition at 0.1 µM (LTK) [%],inhibition at 1 µM (LTK) [%],inhibition at 0.1 µM (AURORA-C) [%],inhibition at 1 µM (AURORA-C) [%],inhibition at 0.1 µM (CHEK2) [%],inhibition at 1 µM (CHEK2) [%],inhibition at 0.1 µM (DCAMKL2) [%],inhibition at 1 µM (DCAMKL2) [%],inhibition at 0.1 µM (MAPK1) [%],inhibition at 1 µM (MAPK1) [%],inhibition at 0.1 µM (MEK1) [%],inhibition at 1 µM (MEK1) [%]
"COc1cc(-c2cc(-c3ccc(N4CCNCC4)cc3)cnc2C)cc(OC)c1OC [Compound 10, 1-(4-(6-methyl-5-(3,4,5-trimethoxyphenyl)pyridin-3-yl)phenyl)piperazine]",1,3,8,7,3,4,-2,1,4,10,1,1,1,8,1,0,1,1,0,2
"COc1cc(-c2cc(-c3ccc(N4CCNCC4)cc3)cnc2N)cc(OC)c1OC [Compound 15, 5-(4-(piperazin-1-yl)phenyl)-3-(3,4,5-trimethoxyphenyl)pyridin-2-amine]",1,2,3,7,2,0,2,1,13,60,3,7,2,7,-1,3,3,6,3,6
